Consider 4 compounds from patent US20230312564A1, “AROMATIC RING-LACTAM COMPOUND, PREPARATION METHOD THEREFOR AND USE THEREOF” (SHANGHAI RINGENE BIOPHARMA CO., LTD., priority 2020, published 2023).

Each structure is given as a SMILES string. Read-outs that look alike come from different tables or passages of the source. Bounds are passed on as bounds.

One series addresses T1, ERK1/2 kinase.
T1 construct: fused on or other part: Carna's ERK products carry a GST tag by vendor knowledge
The series can be described thus: ERK1/2 kinase (Carna) inhibitory activity, Caliper mobility shift. The series is classed as biochemical. The following applies: for IC50: read-out: ERK½ IC50. In short, it runs like this: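 Compounds tested from 10 μM top concentration, 3-fold dilutions to 10 points, in duplicate, in 1× kinase buffer; Caliper mobility-shift readout.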

For the next series, the system named is Colo-205 cells. The experiment in a line: Colo-205 tumor cell proliferation, CCK-8, 72 hours. The series is classed as cell-based. The note with it: for IC50: Homo sapiens, COLO 205, 72 hours, CCK-8, numeric values, read-out: Colo-205 IC50; for cell proliferation inhibitory activity (in words): Colo-205.
Series [1] has as its system Colo-205 transplanted tumor. The experiment in a line: Growth inhibition of nude mice Colo-205 transplanted tumor. In kind it is in vivo. The following applies: 50 mg/kg, qdx21, po. How it is done: The tumor tissue in the vigorous growth phase was cut into about 1.5 mm^3 and inoculated subcutaneously in the right axilla of nude mice under sterile conditions. The diameter of subcutaneous transplanted tumors in nude mice was measured with a vernier caliper, and the mice were randomly divided into groups when the average tumor volume reached about 130 mm^3. The embodiment compounds (injection water containing 1% Tween 80 were configured to a desired concentration for later use) were orally administered daily at a given dose for three consecutive weeks, and the solvent control group was administered with the same amount of solvent. During the whole test, the diameter of transplanted tumor was measured twice a week, and the mice were weighed at the same time. The calculation formula of tumor volume (TV) is expressed as TV=1/2×a×b^2, wherein a and b represent length and width, respectively. The relative tumor volume (RTV) was calculated according to the measurement results, and the calculation formula is RTV=Vt/V0, wherein V0 is the tumor volume measured when administered in separate cages (i.e., d0), and Vt is the tumor volume at the time of each measurement.

The test system of a further series is p-ERK in MiaPaca-2. The experiment in a line: p-ERK feedback upregulation in MiaPaca-2 tumor cells. The note with it: acting on MiaPaca-2. In kind it is cell-based.
Series [2] can be described thus: Liver microsomal metabolic stability, human. The following applies: liver microsomes, 0.5 mg/mL microsomes, 1 μM compound, NADPH, read-out: Liver microsomal stability T1/2. The series is classed as in vitro ADME. As to the method: (§1) The reaction was stopped with tinidazole-containing acetonitrile at 0 min, 5 min, 10 min and 30 min, respectively. After vortexing for 10 min and centrifuging at 15,000 rmp for 10 min, 50 μL of the supernatant was injected into a 96-well plate. The metabolic stability of the compound was calculated by determining the relative reduction of the drug, calculated as half-life T1/2.

The nature of series [3]: Liver microsomal stability, comparisons in words across species. The series is classed as in vitro ADME. The note with it: mouse, rat and human; compared with comparative compound 5. As to the method:
as §1
(In general: Liver microsomes are vesicles of endoplasmic reticulum, rich in cytochrome P450 enzymes.)

The nature of series [4]: Liver microsomal metabolic stability, dog. In kind it is in vitro ADME. The note with it: liver microsomes, 0.5 mg/mL microsomes, 1 μM compound, NADPH, read-out: Liver microsomal stability T1/2. How it is done:
as §1

The target of another series is T2, CYP1A2 (Homo sapiens, UniProt P05177).
T2 sequence (P05177 1-516): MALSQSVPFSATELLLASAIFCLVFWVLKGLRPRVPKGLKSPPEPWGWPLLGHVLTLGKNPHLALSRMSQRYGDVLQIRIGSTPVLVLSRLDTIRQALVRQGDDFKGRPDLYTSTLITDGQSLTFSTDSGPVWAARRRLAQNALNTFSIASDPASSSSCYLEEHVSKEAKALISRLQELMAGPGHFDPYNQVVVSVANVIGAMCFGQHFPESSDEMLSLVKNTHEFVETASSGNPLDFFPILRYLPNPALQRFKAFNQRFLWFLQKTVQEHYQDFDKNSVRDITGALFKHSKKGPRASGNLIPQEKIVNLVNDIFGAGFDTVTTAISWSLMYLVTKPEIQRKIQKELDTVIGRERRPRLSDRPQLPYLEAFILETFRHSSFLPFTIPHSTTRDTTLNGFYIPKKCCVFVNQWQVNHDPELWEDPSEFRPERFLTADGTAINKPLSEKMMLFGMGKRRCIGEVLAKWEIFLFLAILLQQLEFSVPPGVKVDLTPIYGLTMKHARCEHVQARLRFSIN
The series can be described thus: Direct inhibition test (DI test) in human liver microsomes, CYP1A2. As to the method:
(§2) (2) Direct inhibition test (DI test): A system containing 100 μL of human liver microsomes (final concentration of 0.2 mg/mL) was subjected to a direct inhibition incubation, and the system contained NADPH (final concentration of 1 mM), 10 μM compound, positive inhibitor cocktail (10 μM ketoconazole, 10 μM quinidine, 100 μM sulfaphenazole, 10 μM α-naphthoflavone, 1,000 μM tranylcypromine), negative control (BPS of 0.1% DMSO), and mixed probe substrates (10 μM midazolam, 100 μM testosterone, 10 μM dextromethorphan, […], 100 μM phenacetin, 100 μM mephenytoin). After 20 minutes of incubation, the reaction was stopped. The relative activity of the enzyme was calculated by measuring the relative production of metabolites.

For a further series, the target named is T3, CYP2C19 (Homo sapiens, UniProt P33261).
T3 construct: A system containing 100 μL of human liver microsomes; from tissue; host or cells: human liver microsomes
T3 sequence (P33261 whole entry): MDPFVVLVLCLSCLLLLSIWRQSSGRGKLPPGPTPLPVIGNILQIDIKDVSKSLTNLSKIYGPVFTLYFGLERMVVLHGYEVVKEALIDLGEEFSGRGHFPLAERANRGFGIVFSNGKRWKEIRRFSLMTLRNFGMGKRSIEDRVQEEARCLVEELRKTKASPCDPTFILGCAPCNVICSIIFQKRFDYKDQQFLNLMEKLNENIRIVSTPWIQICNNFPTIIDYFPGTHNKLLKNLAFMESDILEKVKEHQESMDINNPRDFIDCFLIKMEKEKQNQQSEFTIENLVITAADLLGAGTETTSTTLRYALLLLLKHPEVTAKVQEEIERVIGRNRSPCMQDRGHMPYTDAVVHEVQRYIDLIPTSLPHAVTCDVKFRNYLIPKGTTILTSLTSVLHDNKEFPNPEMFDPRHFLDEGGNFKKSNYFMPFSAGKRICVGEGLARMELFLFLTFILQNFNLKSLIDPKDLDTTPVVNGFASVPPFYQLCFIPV
The series can be described thus: Direct inhibition test (DI test) in human liver microsomes, CYP2C19. The series is classed as in vitro ADME. As to the method:
as §2

A short description of series [5]: Liver microsomal metabolic stability, mouse. The series is classed as in vitro ADME. The note with it: liver microsomes, 0.5 mg/mL microsomes, 1 μM compound, NADPH, read-out: Liver microsomal stability T1/2. How it is done:
as §1

The nature of series [6]: In-vivo pharmacokinetic parameters in mice. Also on record: species or system Balb-c mice. The procedure, abridged: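 Male SD rats or Balb-c mice were dosed intravenously at 1 mg/kg or orally at 5 mg/kg. Jugular-vein plasma was sampled up to 24 h and analysed by LC-MS/MS. Non-compartmental analysis gave AUC, MRT, Cmax, Tmax, T1/2, Vd and oral bioavailability (F).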
In the next series the target is T4, CYP3A4 (Homo sapiens, UniProt P08684).
T4 construct: A system containing 100 μL of human liver microsomes; from tissue; host or cells: human liver microsomes
T4 sequence (P08684 whole entry): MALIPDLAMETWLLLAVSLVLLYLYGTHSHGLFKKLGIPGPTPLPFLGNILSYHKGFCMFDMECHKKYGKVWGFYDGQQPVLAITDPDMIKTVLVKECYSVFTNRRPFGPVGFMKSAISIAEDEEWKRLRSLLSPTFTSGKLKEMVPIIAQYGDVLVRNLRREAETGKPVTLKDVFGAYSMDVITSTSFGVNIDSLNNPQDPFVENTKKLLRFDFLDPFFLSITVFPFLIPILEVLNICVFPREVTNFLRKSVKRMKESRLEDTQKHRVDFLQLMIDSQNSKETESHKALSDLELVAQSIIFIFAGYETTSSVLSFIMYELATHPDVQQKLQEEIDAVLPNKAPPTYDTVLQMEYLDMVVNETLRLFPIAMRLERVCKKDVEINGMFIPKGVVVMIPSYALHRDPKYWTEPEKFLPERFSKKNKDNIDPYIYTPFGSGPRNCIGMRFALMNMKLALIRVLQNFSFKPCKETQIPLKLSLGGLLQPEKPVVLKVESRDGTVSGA
The series can be described thus: Direct inhibition test (DI test) in human liver microsomes, CYP3A4. In kind it is in vitro ADME. As to the method: as §2

A further series addresses CYP2C8 (Homo sapiens, UniProt P11712). The series can be described thus: Direct inhibition test (DI test) in human liver microsomes, CYP2C8. The series is classed as in vitro ADME.
The nature of series [7]: Liver microsomal metabolic stability, rat. The series is classed as in vitro ADME. The note with it: liver microsomes, 0.5 mg/mL microsomes, 1 μM compound, NADPH, read-out: Liver microsomal stability T1/2. As to the method: as §1
In the next series the target is T5, CYP2D6 (Homo sapiens, UniProt P10635).
T5 construct: A system containing 100 μL of human liver microsomes; from tissue; host or cells: human liver microsomes
T5 sequence (P10635 whole entry): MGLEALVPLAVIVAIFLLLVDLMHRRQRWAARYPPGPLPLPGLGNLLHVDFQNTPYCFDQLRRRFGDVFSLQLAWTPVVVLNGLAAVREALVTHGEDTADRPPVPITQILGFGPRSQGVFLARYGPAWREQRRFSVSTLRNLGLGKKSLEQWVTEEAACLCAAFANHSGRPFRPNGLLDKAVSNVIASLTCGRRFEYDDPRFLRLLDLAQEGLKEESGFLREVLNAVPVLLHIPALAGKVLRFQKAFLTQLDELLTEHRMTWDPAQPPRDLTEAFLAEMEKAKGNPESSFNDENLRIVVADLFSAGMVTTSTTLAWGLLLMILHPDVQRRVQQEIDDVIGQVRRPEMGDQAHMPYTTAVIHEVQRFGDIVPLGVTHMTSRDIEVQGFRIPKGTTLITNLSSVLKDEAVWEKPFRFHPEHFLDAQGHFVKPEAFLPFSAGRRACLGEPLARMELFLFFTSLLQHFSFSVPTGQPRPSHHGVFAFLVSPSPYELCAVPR
The experiment in a line: Direct inhibition test (DI test) in human liver microsomes, CYP2D6. The series is classed as in vitro ADME. As to the method:
as §2

Setting [8] is: male, Balb-c, mouse, plasma, IV, 1 mg/kg.
[9] abbreviates: male, Balb-c, mouse, plasma, PO, 5 mg/kg.

Sequence of CYP2C8 (P11712 whole entry): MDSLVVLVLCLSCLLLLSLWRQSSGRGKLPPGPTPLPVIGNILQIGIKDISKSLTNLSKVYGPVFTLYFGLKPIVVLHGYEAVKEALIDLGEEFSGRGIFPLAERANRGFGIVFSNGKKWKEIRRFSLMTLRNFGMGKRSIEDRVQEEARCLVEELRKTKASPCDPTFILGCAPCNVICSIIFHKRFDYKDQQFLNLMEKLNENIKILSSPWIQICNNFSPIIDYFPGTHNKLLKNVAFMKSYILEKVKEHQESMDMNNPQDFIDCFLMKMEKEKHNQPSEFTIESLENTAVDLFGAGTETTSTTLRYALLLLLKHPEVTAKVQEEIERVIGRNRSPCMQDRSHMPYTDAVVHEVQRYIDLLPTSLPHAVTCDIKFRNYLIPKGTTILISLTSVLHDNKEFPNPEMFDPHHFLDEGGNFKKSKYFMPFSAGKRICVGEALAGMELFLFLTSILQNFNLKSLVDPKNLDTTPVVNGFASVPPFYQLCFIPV

As to `CC(C)Nc1cc(-c2c[nH]c(C(=O)N[C@H](CO)c3cccc(Cl)c3)c2)c(Cl)cn1` [BVD523, reference compound], the IC50 (as a rule, the concentration at which inhibition is half-maximal) was under 0.01 µM on ERK1/2 kinase (class symbols) and 0.28 µM in the series on Colo-205 cells. Besides, the T/C (commonly the result in the treated group divided by that in the control group, in per cent) in series [1] was found to be 48.5%. Besides, the “Initial weight (D0)” value in series [1] (D0) was found to be 19.8 g. Also, the “Terminal weight (D21)” value in series [1] (D21) is given as 19.0 g. The Initial tumor volume in series [1] (initial) is 97 ± 14 mm^3. In [1] (terminal), this compound displayed a Terminal tumor volume of 471 ± 198 mm^3. Further, the “p-ERK upregulation (in words)” value in the series with p-ERK in MiaPaca-2 is reported as “will cause p-ERK feedback upregulation”.
On to `COc1cc(F)cc([C@@H](CO)NC(=O)[C@@H](C)N2Cc3ccc(-c4nc(NC5CCOCC5)ncc4Cl)nc3C2=O)c1` [Embodiment 18], for which the half-life at 1 μM in series [2] came to 12 min; in [4], 32 min; in series [5] it was 32 min; in series [7] it was 16 min. Also, in [3], the “stability in liver microsomes (in words)” value is given as “significantly improved”. Besides, in the series with ERK1/2 kinase, the “enzyme inhibitory activity (in words)” value is given as “extremely strong enzyme inhibitory activity”. In addition, the IC50 on ERK1/2 kinase (numeric values) is 0.0008 µM; in the series on Colo-205 cells, 0.0333 µM; at CYP1A2, over 10 µM; against CYP2C19, over 10 µM; against CYP3A4 it was over 10 µM; at CYP2D6, over 10 µM. Further, the “cell proliferation inhibitory activity (in words)” value with Colo-205 cells is given as “strong cell proliferation inhibitory activity”. In addition, in series [6] (PO 5 mg/kg vs IV 1 mg/kg), the F amounted to 25%. Also, the AUC(0-inf) (commonly total exposure, with the tail of the curve extrapolated) came to 0.202 µM·h in series [6] (setting [8]) and 0.257 µM·h in series [6] (setting [9]). Also, the AUC(0-t) (commonly exposure summed from dosing to a finite time, without extrapolation to infinity) in series [6] (setting [8]) came out at 0.198 µM·h; in series [6] (setting [9]), 0.253 µM·h. Moreover, in series [6] (setting [8]), the MRT inf – broadly, the average time that molecules of a dose stay in the body – was 30 min. For the same compound, in series [6] (setting [8]), the clearance (commonly the rate of elimination divided by the concentration) is 144 mL/min/kg. The half-life is 72 min in series [6] (setting [8]) and 42 min in series [6] (setting [9]). Moreover, the Vd in [6] (male, Balb-c, mouse, plasma, IV, 1 mg/kg, read-out: Vss) was 3.9 L/kg. Moreover, in series [6] (setting [9]), the peak level (Cmax) was 289 nM. Also, the Tmax (as a rule, the time from dosing to the highest level) in [6] (setting [9]) amounted to 24 min. At CYP2C8, this compound returned an IC50 at 20 min of over 10 µM.
For `C[C@H](C(=O)N[C@H](CO)c1ccc(F)c(Cl)c1)N1Cc2ccc(-c3nc(NC4CCOCC4)ncc3F)c(F)c2C1=O` [Embodiment 48], the IC50 on ERK1/2 kinase (numeric values) was under 0.001 µM; in the series with Colo-205 cells, 0.0192 µM; on CYP1A2 it was over 10 µM; against CYP2C19 it was over 10 µM; against CYP3A4, over 10 µM; on CYP2D6, over 10 µM. Besides, the “cell proliferation inhibitory activity (in words)” value in the series with Colo-205 cells is “strong cell proliferation inhibitory activity”. At CYP2C8, this compound returned an IC50 at 20 min of over 10 µM.
As to `[2H]C([2H])([2H])Oc1cc(F)cc([C@@H](CO)NC(=O)[C@@H](C)N2Cc3ccc(-c4nc(NC5CCOCC5)ncc4F)c(F)c3C2=O)c1` [Embodiment 49], in the series with ERK1/2 kinase, the “enzyme inhibitory activity (in words)” value was “extremely strong enzyme inhibitory activity”. Besides, the IC50 at ERK1/2 kinase (numeric values) is under 0.001 µM; in the series with Colo-205 cells it was 0.0174 µM; at CYP1A2, over 10 µM; against CYP2C19, over 10 µM; at CYP3A4, over 10 µM; against CYP2D6 it was over 10 µM. Further, in the series on Colo-205 cells, the “cell proliferation inhibitory activity (in words)” value was “strong cell proliferation inhibitory activity”. Further, the IC50 at 20 min against CYP2C8 is over 10 µM.
